Laboratory results as given in the supplement of paper PMC10307832.

Columns and labels:
Test in all cases: relative viability (nuclei count vs DMSO), 5 days (fraction); higher = more cells survive
[1] = compound: O=C1NC(=O)[C@@H](c2cn3c4c(cccc24)CCC3)[C@@H]1c1c[nH]c2ccccc12 [Tivantinib] + CS(=O)(=O)N1CCN(Cc2cc3nc(-c4cccc5[nH]ncc45)nc(N4CCOCC4)c3s2)CC1 [Pictilisib] (partner 1 µM)
How it was run: (§1)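 Each reported value is a median over duplicate plates. It expresses relative viability: treated-well nuclei count divided by vehicle-well nuclei count. Lung cancer cell lines in 1536-well plates were dosed by pin tool a day after seeding, alone with one drug or with a fixed anchor-drug dose plus five library-drug doses (not always all listed) in √10 steps, and nuclei were counted after 5 days.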

[2] = compound: O=C1NC(=O)[C@@H](c2cn3c4c(cccc24)CCC3)[C@@H]1c1c[nH]c2ccccc12 [Tivantinib] + CCNC(=O)c1noc(-c2cc(C(C)C)c(O)cc2O)c1-c1ccc(CN2CCOCC2)cc1 [Luminespib] (partner 0.01 µM)
How it was run: as §1

[3] = compound: O=C1NC(=O)[C@@H](c2cn3c4c(cccc24)CCC3)[C@@H]1c1c[nH]c2ccccc12 [Tivantinib] + C[C@@H](Oc1cc(-c2cnn(C3CCNCC3)c2)cnc1N)c1c(Cl)ccc(F)c1Cl [Crizotinib] (partner 1 µM)
How it was run: as §1

[4] = compound: O=C1NC(=O)[C@@H](c2cn3c4c(cccc24)CCC3)[C@@H]1c1c[nH]c2ccccc12 [Tivantinib] + COc1cc2c(Oc3ccc(NC(=O)C4(C(=O)Nc5ccc(F)cc5)CC4)cc3F)ccnc2cc1OCCCN1CCOCC1 [Foretinib] (partner 0.25 µM)
How it was run: as §1

[5] = compound: O=C1NC(=O)[C@@H](c2cn3c4c(cccc24)CCC3)[C@@H]1c1c[nH]c2ccccc12 [Tivantinib] + C[C@]1(O)C[C@@H](c2nc(-c3ccc4ccc(-c5ccccc5)nc4c3)c3c(N)nccn32)C1 [Linsitinib] (partner 1 µM)
How it was run: as §1

UMC-11
relative viability ([1]; first compound 0.01 µM): 0.733
relative viability ([1]; first compound 0.03162 µM): 0.423
relative viability ([1]; first compound 0.1 µM): 0.75
relative viability ([1]; first compound 0.3162 µM): 0.954
relative viability ([2]; first compound 0.01 µM): 0.927
relative viability ([2]; first compound 0.03162 µM): 1.02
relative viability ([2]; first compound 0.1 µM): 0.928
relative viability ([2]; first compound 0.3162 µM): 1.13
relative viability ([3]; first compound 0.01 µM): 0.662
relative viability ([3]; first compound 0.03162 µM): 0.601
relative viability ([3]; first compound 0.1 µM): 0.637
relative viability ([3]; first compound 0.3162 µM): 0.531
relative viability ([4]; first compound 0.01 µM): 1.04
relative viability ([4]; first compound 0.03162 µM): 0.975
relative viability ([4]; first compound 0.1 µM): 0.944
relative viability ([4]; first compound 0.3162 µM): 1.01
relative viability ([5]; first compound 0.01 µM): 0.974
relative viability ([5]; first compound 0.03162 µM): 0.979
relative viability ([5]; first compound 0.1 µM): 0.943
relative viability ([5]; first compound 0.3162 µM): 1
